Assays:
[1] = system: LEFCH; assay: In-water applied, transplanted paddy rice weeds (Example II); format: in vivo, Leptochloa chinensis (L.) Nees
Procedure: Weed seeds or nutlets of the desired test plant species were planted in puddled soil (mud) prepared by mixing a shredded, non-sterilized mineral soil (50.5 percent silt, 25.5 percent clay, and 24 percent sand, with a pH of about 7.6 and an organic matter content of about 2.9 percent) and water at a 1:1 volumetric ratio. The prepared mud was dispensed in 365 mL aliquots into 16-ounce (oz.) non-perforated plastic pots with a surface area of 86.59 square centimeters (cm^2) leaving a headspace of 3 centimeters (cm) in each pot. Mud was allowed to dry overnight prior to planting or transplanting. Rice seeds were planted in Sun Gro MetroMix® 306 planting mixture, which typically has a pH of about 6.0 to about 6.8 and an organic matter content of about 30 percent, in plastic plug trays. Seedlings at the second or third leaf stage of growth were transplanted into 860 mL of mud contained in 32-oz. non-perforated plastic pots with a surface area of 86.59 cm^2 4 days prior to herbicide application. The paddy was created by filling the headspace of the pots with 2.5 to 3 cm of water. When required to ensure good germination and healthy plants, a fungicide treatment and/or other chemical or physical treatment was applied. The plants were grown for 4-22 days in a greenhouse with an approximate 14 h photoperiod which was maintained at about 29° C. during the day and about 26° C. during the night. Nutrients were added as Osmocote® (19:6:12, N:P:K+minor nutrients) at 2 g per 16-oz. pot and 4 g per 32-oz. pot. Water was added on a regular basis to maintain the paddy flood, and supplemental lighting was provided with overhead metal halide 1000-Watt lamps as necessary. The plants were employed for testing when they reached the first through fourth true leaf stage.
Treatments consisted of the acid or esters of 4-amino-3-chloro-5-fluoro-6-(4-chloro-2-fluoro-3-methoxy-phenyl)pyridine-2-carboxylic acid (compound A) each formulated as an SC and various herbicidal components alone and in combination. Forms of compound A were applied on an acid equivalent basis. […]
Treatment requirements for each compound or herbicidal component were calculated based upon the rates being tested, the concentration of active ingredient or acid equivalent in the formulation, an application volume of 2 mL per component per pot, and an application area of 86.59 cm^2 per pot.
For formulated compounds, a measured amount was placed in an individual 100 or 200 mL glass vial and was dissolved in a volume of 1.25% (v/v) Agri-Dex® crop oil concentrate to obtain application solutions. […]

[2] = system: CENMA; assay: Postemergence herbicidal activity in forage crops (Example IV); format: in vivo, Centaurea biebersteinii DC.; conditions: after approximately 21 days
Procedure: (§1) Seeds or root cuttings of the desired test plant species were planted in Sun Gro MetroMix® 306 planting mixture, which typically has a pH of about 6.0 to about 6.8 and an organic matter content of about 30 percent, in plastic pots with a surface area of 126.6 square centimeters (cm^2). When required to ensure good germination and healthy plants, a fungicide treatment and/or other chemical or physical treatment was applied. The plants were grown for 14-60 days in a greenhouse with an approximate 14 hour photoperiod which was maintained at about 28° C. during the day and about 24° C. during the night. Nutrients and water were added on a regular basis and supplemental lighting was provided with overhead metal halide 1000-Watt lamps as necessary. The plants were employed for testing when they reached the BBCH13 to BBCH23 leaf stage.
(§2) Treatments consisted of the benzyl ester of 4-amino-3-chloro-5-fluoro-6-(4-chloro-2-fluoro-3-methoxy-phenyl)pyridine-2-carboxylic acid (Compound A), formulated as a SC (suspension concentrate), and a second herbicide alone and in combination.
(§3) A measured aliquot of Compound A was placed in a 25 milliliter (mL) glass vial and diluted in a volume of 1.25% (v/v) Agri-Dex® crop oil concentrate to obtain stock solutions. Compound requirements are based upon a 12 mL application volume at a rate of 187 liters per hectare (L/ha). Spray solutions of the second cereal herbicide and experimental compound mixtures were prepared by adding the stock solutions to the appropriate amount of dilution solution to form 12 mL spray solution with active ingredients in two- and three-way combinations. Formulated compounds were applied to the plant material with an overhead Mandel track sprayer equipped with an 8002E nozzle calibrated to deliver 187 L/ha over an application area of 0.503 square meters (m^2) at a spray height of 18 inches (46 cm) above average plant canopy. Control plants were sprayed in the same manner with the solvent blank.
(§4) The treated plants and control plants were placed in a greenhouse as described above and watered by sub-irrigation to prevent wash-off of the test compounds. After approximately 21 days, the condition of the test plants, as compared with that of the control plants, was determined visually and scored on a scale of 0 to 100 percent where 0 corresponds to no injury and 100 corresponds to complete kill.
(§5) Colby's equation was used to determine the herbicidal effects expected from the mixtures (Colby, S. R. 1967. Calculation of the synergistic and antagonistic response of herbicide combinations. Weeds 15:20-22.).
(§6) The following equation was used to calculate the expected activity of mixtures containing two active ingredients, A and B: Expected=A+B−(A×B/100)

[3] = system: SONAR; assay: as above; format: in vivo, Sonchus arvensis L.; conditions: after approximately 21 days
Procedure: as §1, §2, §3, §4, §5, §6

[4] = Compound A Benzyl Ester 4.4 gae/ha
[5] = Compound A Benzyl Ester 8.8 gae/ha
[6] = Compound A Benzyl Ester 17.5 gae/ha

Compound: COc1c(Cl)ccc(-c2nc(C(=O)OCc3ccccc3)c(Cl)c(N)c2F)c1F [Compound A Benzyl Ester, benzyl ester of 4-amino-3-chloro-5-fluoro-6-(4-chloro-2-fluoro-3-methoxy-phenyl)pyridine-2-carboxylic acid]
- Visual Weed Control (%) - 25 DAA LEFCH Obs ([1]; Compound A Benzyl Ester 8.75 gae/ha): 0%
- CENMA Obs [2, 4]: 70%
- CENMA Obs [2, 5]: 85%
- CENMA Obs [2, 6]: 95%
- SONAR Obs [3, 4]: 65%
- SONAR Obs [3, 5]: 100%
- SONAR Obs [3, 6]: 95%

Compound: CCc1cnc(C2=NC(C)(C(C)C)C(=O)N2)c(C(=O)O)c1.N (racemic) [Imazethapyr ammonium, ammonium (±)-2-[4,5-dihydro-4-methyl-4-(1-methylethyl)-5-oxo-1H-imidazol-2-yl]-5-ethyl-3-pyridinecarboxylate]
- Visual Weed Control (%) - 25 DAA LEFCH Obs ([1]; Imazethapyr ammonium 8.75 gae/ha): 0%
- Visual Weed Control (%) - 25 DAA LEFCH Obs ([1]; Imazethapyr ammonium 17.5 gae/ha): 0%
- Visual Weed Control (%) - 25 DAA LEFCH Obs ([1]; Imazethapyr ammonium 35 gae/ha): 95%

Compound: Cc1cnc(C2=NC(C)(C(C)C)C(=O)N2)c(C(=O)O)c1.N (racemic) [Imazapic ammonium, ammonium (±)-2-[4,5-dihydro-4-methyl-4-(1-methylethyl)-5-oxo-1H-imidazol-2-yl]-5-methyl-3-pyridinecarboxylic acid]
- CENMA Obs ([2]; Imazapic ammonium 8.75 gae/ha): 0%
- CENMA Obs ([2]; Imazapic ammonium 17.5 gae/ha): 0%
- SONAR Obs ([3]; Imazapic ammonium 17.5 gae/ha): 0%

From patent publication US8906826B2, “Herbicidal compositions comprising 4-amino-3-chloro-5-fluoro-6-(4-chloro-2-fluoro-3-methoxyphenyl) pyridine-2-carboxylic acid or a derivative thereof and imidazolinones” (Dow AgroSciences, LLC, priority 2012, dated 2014)
